The text below walks through data of patent US6933322B2, “Substituted naphthylenes for the treatment of non-insulin dependent diabetes mellitus” (Wyeth, priority 2002, dated 2005).

Data set [1] deals with hepatocytes isolated and cultured from obese Zucker (fa/fa) rats. Nature of the data set: Inhibition of glucose output from hepatocytes isolated and cultured from obese Zucker (fa/fa) rats. The data set is classed as cell-based, rat. To be noted: inhibition of glucose output compared to glucagon stimulated cells. The procedure: Inhibition of Glucose Output from Hepatocytes Isolated and Cultured from Obese Zucker (fa/fa) Rats and Their Lean Controls
Culturing of Hepatocytes: Isolated hepatocytes were plated on 12 well rat-tail collagen coated plates at a cell density of 5×10(5) cells/ml (approximately 1 ml of cell suspension per well). Following a one hour attachment period in which plates were incubated in a CO2 incubator at 37 deg C. (95% O2, 5% CO2), the supernatant containing unattached hepatocytes was removed and replaced with fresh media (1 ml/well) containing 1 μM dexamethasone and 100 pM insulin. Cells were maintained at 37 deg C. for 48 hours in a 95% O2, 5% CO2 environment. At the end of the first 24 hours, the media was aspirated off of the wells and replaced with fresh media containing the same concentrations of dexamethasone and insulin as described earlier. Treatment with Drugs and Assessment of Glucose Output: Drugs were routinely added with fresh media 24 hours after the initial attachment period. Eighteen hours later, media was aspirated and 500 μl of fresh Hank's buffer, Buffer D (glucose-free) supplemented with hormones, gluconeogenic substrates and drug(s) was added to each well and incubated for 4 hours. At the end of the 4 hour incubation, media from each well was removed and assayed for glucose content using the hexokinase/glucose-6-phosphate dehydrogenase coupled assay on the Boehringer Mannheim model 911 auto analyzer. Glucose concentration was expressed as μg/ml. Three of the plates from each treated group were frozen for subsequent determination of protein content. Two plates from each treatment group were used to assess the cytotoxicity of drug(s) and other agents as determined by the MTT (tetrazolium) dye reduction method (see below).
Protein test procedure: Three plates with no insulin treatment and three plates with 10^−8 M insulin treatment were used for protein determination. After supernatant has been removed for determination of glucose output the plates were frozen and stored at −20 deg C. until ready to assay for protein content. Prior to determination of protein the plates were defrosted at room temperature for 15 minutes. An aliquot of 1 ml 0.1 N NaOH was added to each well. Plates were incubated at 4 deg C. overnight. Solutions for measurement of protein content were mixed by pipetting the NaOH solution up and down several time with a 1 ml pipette and then transferring to a small polyethylene tube. Protein determination was based on that of the Pierce BCA protein assay protocol (Pierce cat. no. 23223). A set of protein standards (0.2, 0.4, 0.6, 0.8, and 1 mg/ml BSA) was prepared by serial dilution of 1 mg/ml bovine serum albumin with 0.1 N NaOH, and 40 μl of each standard, or control blank was pipetted into a 96-well plate in duplicate. Each unknown protein sample (40 μl) was tested in triplicate. An aliquot of 200 μl of BCA protein assay reagent (consisting of 50 parts Reagent A with 1 part Reagent B) was added to each well. Samples were mixed with a Titertek pipette. The microtiter plate was covered with sealing tape and incubated at room temperature for 1 hour. After incubation, the sealing tape was removed and absorbance measured on a plate reader (Uvmax kinetic microplate reader, Molecular Devices) at 570 nm. A standard curve was prepared by plotting the blank-corrected absorbance against known protein concentrations, and protein concentrations were then determined for each unknown.
Measurements and Calculations: Glucose output was calculated as μg glucose/mg protein/hour, and inhibition of glucose output was calculated as percent inhibition of glucose output when compared to glucagon stimulated cells. Cytotoxicity was determined using the MTT dye reduction assay and data were expressed as percent inhibition of MTT dye reduction compared to control cells. […]

For data set [2], the system named is diabetic ob/ob mice. The data set can be described thus: Hypoglycemic effect in diabetic ob/ob mice. It counts as in vivo, mouse. As for the experimental part: Hypoglycemic Effect in Diabetic OB/OB Mice
Procedure: In each study, male or female ob/ob (C57 B1/6J) mice and their mean litermates (ob/+ or +/+, Jackson Laboratories) ages 2 to 5 months (10 to 65 g) were randomized according to plasma glucose into 4 groups of 10 mice. The mice were housed 5 per cage and were maintained on normal rodent chow with water ad libitum. Mice receive compound daily by gavage (suspended in 0.5 ml of 0.5% methyl cellulose); dissolved in the drinking water; or admixed in the diet. The dose of compounds given ranges from 2.5 to 200 mg/kg body weight/day. Body weight of fed animals was measured at the beginning of each week and doses for the entire week were calculated using this weight and were expressed in terms of the active moiety of the compound. Control mice receive vehicle only. […]
Measurements: The plasma was isolated by centrifugation and the concentration of glucose was measured enzymatically on an Abbott V. P. Analyzer and the plasma concentration of insulin was determined by radioimmunoassay (Heding, 1972)
Analysis of variance followed by Dunnett's Comparison Test (one-tailed) was used to estimate the significant difference between the plasma glucose values from the control group and the individual compound treated groups (CMS SAS Release 5.18). A compound will be considered active if the difference has a p<0.05.

Data set [3] has as its system diabetic ob/ob mice. As to conditions: reference compound, 20 mg/kg/day; cited from earlier work.

One may read the IC50 as the concentration that gives 50% inhibition. As usually defined, the melting point is the temperature of the solid-liquid transition. Regarding `O=S(=O)(Nc1ccc2c(OCc3ccc(-c4ccc(C(F)(F)F)cc4)cc3F)cccc2c1)C(F)(F)F` [Example 5, C,C,C-Trifluoro-N-[5-(3-fluoro-4′-trifluoromethyl-biphenyl-4-ylmethoxy)-naphthalen-2-yl]-methanesulfonamide], the melting point is 98 to 100 °C. This compound also gave an IC50 in data set [1] (Rattus norvegicus, Hepatocyte) of 6.3 µM.
Regarding `O=S(=O)(Nc1ccc2c(OCc3cccc(OCc4ccc(-c5ccc6ccccc6c5)cc4)c3)cccc2c1)C(F)(F)F` [Example 14, N-[5-(4-naphthalen-2-yl-benzyloxy-3-ylmethoxy)-naphthalen-2-yl]-C,C,C-trifluoro-methanesulfonamide], the midpoint of inhibition in data set [1], the IC50, lay at 10.4 µM.
Turning to `O=S(=O)(Nc1ccc2c(OCc3cccc(-c4ccccc4)c3)cccc2c1)C(F)(F)F` [Example 27], the “REDUCTION IN PLASMA GLUCOSE Day 3 (6 hr) p.o.” value in the data set on diabetic ob/ob mice [2] (10 mg/kg) is given as −31% (10 mg/kg). Besides, in data set [1], the IC50 was 7 µM.
For `O=S(=O)(Nc1ccc2c(OCc3ccc(-c4ccc(Cl)c(Cl)c4)cc3Cl)cccc2c1)C(F)(F)F` [Example 30, C,C,C-Trifluoro-N-[5-(3,3′,4′-trichloro-biphenyl-4-ylmethoxy)-naphthalen-2-yl]-methanesulfonamide], the melting point was 169 to 170 °C. Besides, in the data set with diabetic ob/ob mice [2] (25 mg/kg), the “REDUCTION IN PLASMA GLUCOSE Day 1 (6 hr) p.o.” value is −6% (25 mg/kg) and the “REDUCTION IN PLASMA GLUCOSE Day 3 (6 hr) p.o.” value is −11% (25 mg/kg). The same compound returned an IC50 in data set [1] (Rattus norvegicus, Hepatocyte) of 3.1 µM.
Regarding `O=S(=O)(Nc1ccc2c(OCc3ccc(-c4ccc(Cl)cc4)cc3Cl)cccc2c1)C(F)(F)F` [Example 31, N-[5-(3,4′-Dichloro-biphenyl-4-ylmethoxy)-naphthalen-2-yl]-C,C,C-trifluoro-methanesulfonamide], the melting point was in the range of 176 to 178 °C. Also, in the data set on diabetic ob/ob mice [2] (5 mg/kg), the “REDUCTION IN PLASMA GLUCOSE Day 1 (6 hr) p.o.” value is given as −23% (5 mg/kg) and the “REDUCTION IN PLASMA GLUCOSE Day 3 (6 hr) p.o.” value is given as −22% (5 mg/kg). Besides, the IC50 in data set [1] (Rattus norvegicus, Hepatocyte) is 2.6 µM.
Compound `O=S(=O)(Nc1ccc2c(OCc3csc(-c4ccc(F)cc4F)n3)cccc2c1)C(F)(F)F` [Example 46, N-{5-[2-(2,4-Difluoro-phenyl)-thiazol-4-ylmethoxy]-naphthalen-2-yl}-C,C,C-trifluoro-methanesulfonamide] yielded a melting point of 191 to 192 °C. Also, the IC50 in data set [1] (Rattus norvegicus, Hepatocyte) worked out at 2.8 µM.
On the same counts, the results for `O=S(=O)(Nc1ccc2c(OCc3csc(-c4ccc(C(F)(F)F)cn4)n3)cccc2c1)C(F)(F)F` [Example 52, C,C,C-Trifluoro-N-{5-[2-(5-trifluoromethyl-pyridin-2-yl)-thiazol-4-yl-methoxy]naphthalen-2-yl}-methanesulfonamide] are 197 to 198 °C and 12 µM.
The compound `COc1ccc(-c2nc(COc3cccc4cc(NS(=O)(=O)C(F)(F)F)ccc34)cs2)cc1` [Example 53, C,C,C-Trifluoro-N-{5-[2-(4-methoxy-phenyl)-thiazol-4-ylmethoxy]-naphthalen-2-yl}-methanesulfonamide] showed a melting point of 151 to 152 °C. The compound further yielded an IC50 in data set [1] (Rattus norvegicus, Hepatocyte) of 9.5 µM.
In the case of `O=S(=O)(Nc1ccc2c(OCc3csc(-c4ccc(C(F)(F)F)cc4)n3)cccc2c1)C(F)(F)F` [Example 57, N-{5-[2-(4-trufluoromethyl-phenyl)-thiazol-4-ylmethoxy]-naphthalen-2-yl}-C,C,C-trifluoro-methanesulfonamide], the “REDUCTION IN PLASMA GLUCOSE Day 3 (6 hr) p.o.” value in the data set on diabetic ob/ob mice [2] (10 mg/kg) is −33% (10 mg/kg). The compound also yielded an IC50 in data set [1] of 1.5 µM.
Consider sodium metavanadate, for which the “lowering in plasma glucose” value in the data set with diabetic ob/ob mice [3] is “significant lowering in plasma glucose”.
